pIC50: −log10 of the molar value. Read-outs that look alike come from different tables or passages of the source.
Legend:
[1] = target: alkaline phosphatase; conditions: known inhibitor; cited from earlier work
[2] = target: T1, Fyn SH2 domain (Homo sapiens, UniProt P06241); assay: Competition binding assay of radioactive Fyn SH2 domain to pYEEI beads
T1 construct: The Fyn, Lck and PLC SH2 domains were expressed in bacteria as GST fusion proteins; GST (cleaved yes); made in house; host or cells: bacteria
T1 sequence (P06241 149-246 limits assumed): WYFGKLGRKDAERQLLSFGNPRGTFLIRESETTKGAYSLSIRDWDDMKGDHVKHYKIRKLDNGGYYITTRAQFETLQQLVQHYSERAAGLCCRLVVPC
Text: (§1) The pYEEI peptide was coupled to Affi-Gel 10 beads (Biorad) via its amino-group. The Fyn, Lck and PLC SH2 domains were expressed in bacteria as GST fusion proteins. The linker between the GST protein and the SH2 domain contained a thrombin cleavage site and a protein kinase A (PKA) phosphorylation site. The fusion protein on glutathione beads was radioactively labeled at the PKA phosphorylation site using PKA (Sigma). After extensive washing of the beads, the radioactive SH2 domain was released by cleavage with thrombin (Sigma). In a typical binding assay, 7.5 L of a 1:1 peptide bead slurry were incubated with the radioactive SH2 domain (200 nM) for 2 hours in 100 L of binding buffer (20 mM Tris pH7.2; 150 mM NaCl). In order to separate the radioactive protein bound to the beads, the binding reaction was transfered into a PCR tube (USA Scientific Plastic), whose bottom had been punctured with a 26gauge needle. The PCR tube was placed in a 0.5 mL Eppendorf tube which in turn was placed in a regular 1.5 mL Eppendorf tube. The tubes were spun for 1 second at maximal speed in an Eppendorf centrifuge resulting in the separation of the beads remaining in the PCR tube and the supernatant, which was collected in the 0.5 ml Eppendorf tube. The beads were resuspended in […] PBS and the radioactivity was counted in a liquid scintillation counter after addition of 3 ml scintillation fluid. The radioactivity remaining in the 100 L supernatant was counted in the same way. It was determined that under the conditions described 65% Fyn, 25% PLC and 15%Lck SH2 domain were bound to the beads. By increasing the amount of beads, up to 80% Fyn, 40% PLC and 25% Lck could be bound. These amounts reflect the active fraction of SH2 domains in the different protein preparations.
In order to determine the relative affinity of the SH2 domains for FKpYEEI or SLFpYEEI alone and FKpYEEI or SLFpYEEI bound to FKBP12 and FKBP52, the following competition assay was used. Radioactive SH2 domains were incubated with pYEEI peptide beads and FKpYEEI or SLFpYEEI in the presence or absence of the respective FKBP proteins. FKpYEEI and FKpYEEI/FKBP as well as SLFpYEEI and SLFpYEEI/FKBP compete for binding of the SH2 domains with the peptide beads. The higher the affinity of the FKpYEEI or SLFpYEEI ligand in the supernatant, the less SH2 domain is bound to the peptide beads (FIG. 3).
Using the competition binding assay described above, FKpYEEI was added to peptide beads and the Fyn SH2 domain in the presence of increasing concentrations of FKBP52 (FIG. 4). In this assay, in 100 L binding reactions, radioactively labeled Fyn SH2 domain (200 nM) was incubated with 7.5 L of a 1:1 pYEEI bead slurry. No FKpYEEI, 1.0 M FKpYEEI or 1.0 M FKpYEEI plus increasing concentrations of FKBP52 (0.25-4.0 M) were added. The binding reactions were rotated at room temperature for 2 hours. The supernatant was separated from the beads by spinning the binding reactions in punctured PCR tubes for 1 sec in an Eppendorf centrifuge at maximal speed. The beads were resuspended in 100 1 PBS and the radioactivity bound to the beads was counted in a liquid scintillation vial for 30 sec. The radioactivity bound to the beads in the presence of only the Fyn SH2 domain was plotted as 100% of maximal Fyn SH2 domain binding to pYEEI beads. The radioactivity bound in the presence of FKpYEEI and FKBP52 was calculated as the percentage of maximal Fyn SH2 domain binding. Every binding reaction was done in triplicate. The data points reflect the average of the three binding reactions. The error bars indicate the standard error.
In this assay, in 100 L binding reactions, radioactively labeled Fyn SH2 domain (200 nM) was incubated with 7.5 L of a 1:1 pYEEI bead slurry. […] The binding reactions were rotated at room temperature for 2 hours, centrifuged and analysed as described above. […]

[3] = tested on: PLC SH2 domain; assay: Competition binding assay of radioactive PLC SH2 domain to pYEEI beads; conditions: FKpYEEI 1.5 M plus FKBP12 2.0 M plus FK506 1.0-5.0 M
Text: as §1, with “By increasing the amount of beads, up to 80% Fyn, 40% PLC and 25% Lck could be bound. These amounts reflect the active fraction of SH2 domains in the different protein preparations.” left out
The binary complex of FKpYEEI and FKBP 12 has the same affinity for the Fyn SH2 domain as free FKpYEEI (see FIG. 7). […] The binding reactions were rotated at room temperature for 2 hours, centrifuged and analysed as described above.
In this assay, in 100 L binding reactions, radioactively labeled PLC SH2 domain (400 nM) was incubated with 7.5 L of a 1:1 pYEEI bead slurry. […] The binding reactions were rotated at room temperature for 2 hours, centrifuged and analysed as described above. […]

[4] = target: alkaline phosphatase (Rabbit Intestine) (Oryctolagus cuniculus, UniProt G1SXE4); assay: Alkaline phosphatase inhibition, Rabbit Intestine isoform; format: biochemical; conditions: 100 μM human serum albumin vs none
alkaline phosphatase (Rabbit Intestine), sequence (G1SXE4 25-504): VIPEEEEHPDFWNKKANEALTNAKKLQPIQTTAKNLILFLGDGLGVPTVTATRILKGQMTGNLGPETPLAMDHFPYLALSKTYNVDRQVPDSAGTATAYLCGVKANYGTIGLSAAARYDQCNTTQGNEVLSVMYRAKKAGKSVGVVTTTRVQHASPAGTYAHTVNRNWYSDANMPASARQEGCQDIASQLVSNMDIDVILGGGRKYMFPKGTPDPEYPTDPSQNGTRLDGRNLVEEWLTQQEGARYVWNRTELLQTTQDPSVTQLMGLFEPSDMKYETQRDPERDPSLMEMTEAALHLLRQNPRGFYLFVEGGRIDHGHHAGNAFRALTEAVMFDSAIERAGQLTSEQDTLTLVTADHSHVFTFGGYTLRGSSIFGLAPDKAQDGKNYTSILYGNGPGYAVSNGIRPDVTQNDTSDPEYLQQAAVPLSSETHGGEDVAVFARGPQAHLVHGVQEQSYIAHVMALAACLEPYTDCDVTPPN
Procedure: (§2) Reactions were conducted in 200 mM diethanolamine buffer, pH 10, with methylumbeliferal phosphate as the substrate. The reaction was monitored by recording fluorescence of the hydrolysis product (excitation at 355 nm, fluorescence at […]), and the first 10% of the reaction was used to determine the rate of the reaction.
(§3) In the presence of 100 μM human serum albumin, compound 1 was seen to be a better inhibitor for four of the enzymes tested relative to the inhibition seen in the absence of albumin.

[5] = target: alkaline phosphatase (Bacteria) (Escherichia coli, UniProt P00634); assay: Alkaline phosphatase inhibition, Bacteria isoform; format: biochemical
alkaline phosphatase (Bacteria), sequence (P00634 22-471): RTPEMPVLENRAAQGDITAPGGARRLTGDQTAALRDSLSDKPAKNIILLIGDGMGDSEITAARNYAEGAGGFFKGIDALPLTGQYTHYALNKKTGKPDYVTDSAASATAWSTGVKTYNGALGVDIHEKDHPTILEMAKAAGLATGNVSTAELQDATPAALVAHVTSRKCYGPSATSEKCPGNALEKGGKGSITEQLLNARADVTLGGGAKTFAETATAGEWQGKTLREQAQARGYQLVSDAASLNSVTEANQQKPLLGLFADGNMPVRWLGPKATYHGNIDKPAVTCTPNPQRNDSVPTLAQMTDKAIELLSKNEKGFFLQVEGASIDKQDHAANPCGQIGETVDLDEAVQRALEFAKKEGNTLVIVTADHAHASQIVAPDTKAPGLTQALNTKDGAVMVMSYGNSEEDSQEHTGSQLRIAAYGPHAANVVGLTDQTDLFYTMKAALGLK
Procedure: as §2, §3

[6] = target: alkaline phosphatase (Dog Intestine) (Canis lupus familiaris, UniProt A0A8C0LCK3); assay: Alkaline phosphatase inhibition, Dog Intestine isoform; format: biochemical
alkaline phosphatase (Dog Intestine), sequence (A0A8C0LCK3 23-522): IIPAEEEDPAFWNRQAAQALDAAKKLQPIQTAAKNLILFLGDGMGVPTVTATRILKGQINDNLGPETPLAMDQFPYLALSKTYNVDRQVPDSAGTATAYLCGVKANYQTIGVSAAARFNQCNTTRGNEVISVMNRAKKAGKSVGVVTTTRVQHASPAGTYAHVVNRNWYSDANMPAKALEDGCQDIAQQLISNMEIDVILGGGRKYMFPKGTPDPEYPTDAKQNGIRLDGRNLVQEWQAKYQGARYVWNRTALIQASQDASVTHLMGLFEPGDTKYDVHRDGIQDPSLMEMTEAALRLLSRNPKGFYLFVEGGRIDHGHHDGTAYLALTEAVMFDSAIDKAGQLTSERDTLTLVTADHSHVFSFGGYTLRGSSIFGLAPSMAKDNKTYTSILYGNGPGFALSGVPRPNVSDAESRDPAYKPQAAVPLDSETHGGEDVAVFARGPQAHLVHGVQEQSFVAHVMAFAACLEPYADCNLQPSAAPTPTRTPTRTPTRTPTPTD
Procedure: as §2, §3

[7] = target: T2, alkaline phosphatase (Porcine Kidney) (Sus scrofa, UniProt A0A4X1W3F8); assay: Alkaline phosphatase inhibition, Porcine Kidney isoform; format: biochemical
T2 sequence (A0A4X1W3F8 1-524): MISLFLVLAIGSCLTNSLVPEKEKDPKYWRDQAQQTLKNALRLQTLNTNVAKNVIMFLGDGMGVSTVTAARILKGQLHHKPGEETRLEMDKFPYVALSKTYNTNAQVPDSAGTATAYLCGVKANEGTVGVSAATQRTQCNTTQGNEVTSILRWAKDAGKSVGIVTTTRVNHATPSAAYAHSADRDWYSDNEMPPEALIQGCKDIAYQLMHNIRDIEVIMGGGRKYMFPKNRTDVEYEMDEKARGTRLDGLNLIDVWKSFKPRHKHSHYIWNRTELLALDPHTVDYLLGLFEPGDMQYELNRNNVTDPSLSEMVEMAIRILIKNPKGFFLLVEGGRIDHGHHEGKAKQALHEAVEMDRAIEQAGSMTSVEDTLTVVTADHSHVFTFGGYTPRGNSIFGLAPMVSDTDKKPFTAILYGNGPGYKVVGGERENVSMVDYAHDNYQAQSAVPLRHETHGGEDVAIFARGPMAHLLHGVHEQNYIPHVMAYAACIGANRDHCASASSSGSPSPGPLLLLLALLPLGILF
Procedure: as §2, §3

[8] = target: alkaline phosphatase (Eel Intestine) (Anguilla anguilla, UniProt A0A9D3RXU0); assay: Alkaline phosphatase inhibition, Eel Intestine isoform; format: biochemical; conditions: 100 μM human serum albumin vs none
alkaline phosphatase (Eel Intestine), sequence (A0A9D3RXU0 entry or part of it): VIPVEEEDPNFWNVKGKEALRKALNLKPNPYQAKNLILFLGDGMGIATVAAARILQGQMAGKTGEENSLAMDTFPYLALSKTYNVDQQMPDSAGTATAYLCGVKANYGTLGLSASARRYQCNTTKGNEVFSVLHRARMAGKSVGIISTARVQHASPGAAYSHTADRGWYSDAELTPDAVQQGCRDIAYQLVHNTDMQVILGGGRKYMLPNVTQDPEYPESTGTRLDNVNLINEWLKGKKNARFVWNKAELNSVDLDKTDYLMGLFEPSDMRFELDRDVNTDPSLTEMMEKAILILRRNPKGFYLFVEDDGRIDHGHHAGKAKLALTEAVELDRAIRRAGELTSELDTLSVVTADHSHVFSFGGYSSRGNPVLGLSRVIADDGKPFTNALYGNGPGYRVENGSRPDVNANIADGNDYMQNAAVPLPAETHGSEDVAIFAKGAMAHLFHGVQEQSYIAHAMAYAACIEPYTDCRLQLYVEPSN
Procedure: as §2, §3

[9] = target: T3, alkaline phosphatase (Bovine Milk) (Bos taurus, UniProt P09487); assay: Alkaline phosphatase inhibition, Bovine Milk isoform; format: biochemical
T3 construct: Bovine Milk; from tissue; host or cells: bovine milk
T3 sequence (P09487 18-499): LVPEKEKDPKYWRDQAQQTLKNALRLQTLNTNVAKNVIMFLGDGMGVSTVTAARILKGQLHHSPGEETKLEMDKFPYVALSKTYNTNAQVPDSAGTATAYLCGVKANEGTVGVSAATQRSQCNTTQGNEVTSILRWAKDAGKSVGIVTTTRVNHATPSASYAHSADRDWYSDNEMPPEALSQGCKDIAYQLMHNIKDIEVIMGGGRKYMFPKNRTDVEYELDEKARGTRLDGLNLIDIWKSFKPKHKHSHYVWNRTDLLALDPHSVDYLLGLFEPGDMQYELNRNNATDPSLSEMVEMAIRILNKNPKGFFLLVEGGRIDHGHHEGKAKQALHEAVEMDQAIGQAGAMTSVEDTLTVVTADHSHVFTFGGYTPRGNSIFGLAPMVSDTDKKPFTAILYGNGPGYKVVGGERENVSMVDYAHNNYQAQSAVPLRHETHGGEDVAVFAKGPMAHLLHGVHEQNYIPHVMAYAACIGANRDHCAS
Procedure: as §2, §3

[10] = target: T4, alkaline phosphatase (Human Placenta) (Homo sapiens, UniProt P05187); assay: Alkaline phosphatase inhibition, Human Placenta isoform; format: biochemical; conditions: for pIC50: Human Placenta, pH 10
T4 construct: roughly 2-fold for the eel intestine and human placenta isoforms of the enzyme; from tissue; host or cells: human placenta
T4 sequence (P05187 23-506): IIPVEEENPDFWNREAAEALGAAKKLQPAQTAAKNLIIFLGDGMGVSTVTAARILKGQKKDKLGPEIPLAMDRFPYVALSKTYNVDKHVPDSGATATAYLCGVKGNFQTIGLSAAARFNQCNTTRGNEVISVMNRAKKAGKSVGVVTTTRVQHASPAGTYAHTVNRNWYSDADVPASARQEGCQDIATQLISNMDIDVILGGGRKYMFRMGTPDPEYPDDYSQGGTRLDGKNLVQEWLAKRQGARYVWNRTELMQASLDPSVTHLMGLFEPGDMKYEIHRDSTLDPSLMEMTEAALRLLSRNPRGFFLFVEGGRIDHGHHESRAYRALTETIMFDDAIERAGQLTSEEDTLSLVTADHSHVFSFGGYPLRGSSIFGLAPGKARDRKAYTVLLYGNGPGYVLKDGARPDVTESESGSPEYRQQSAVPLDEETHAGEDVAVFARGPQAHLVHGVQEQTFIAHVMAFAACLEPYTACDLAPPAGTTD
Procedure: as §2, §3

[11] = target: alkaline phosphatase (Shrimp) (Pandalus borealis, UniProt Q9BHT8); assay: Alkaline phosphatase inhibition, Shrimp isoform; format: biochemical; conditions: Shrimp, pH 10
alkaline phosphatase (Shrimp) (Pandalus borealis, UniProt Q9BHT8), sequence (Q9BHT8 entry or part of it): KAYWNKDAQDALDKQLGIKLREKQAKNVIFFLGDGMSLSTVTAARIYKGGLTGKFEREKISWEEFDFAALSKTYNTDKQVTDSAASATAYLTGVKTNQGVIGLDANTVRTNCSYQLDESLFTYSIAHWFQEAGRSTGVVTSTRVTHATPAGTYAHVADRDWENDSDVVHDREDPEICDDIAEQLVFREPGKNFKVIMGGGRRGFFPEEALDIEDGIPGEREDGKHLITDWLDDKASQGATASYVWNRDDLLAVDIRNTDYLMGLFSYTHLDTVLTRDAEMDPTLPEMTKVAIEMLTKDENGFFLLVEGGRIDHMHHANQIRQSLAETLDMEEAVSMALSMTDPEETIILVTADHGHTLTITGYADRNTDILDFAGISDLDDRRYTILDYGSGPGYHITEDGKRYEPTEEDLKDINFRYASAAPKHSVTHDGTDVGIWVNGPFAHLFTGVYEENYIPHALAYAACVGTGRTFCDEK
Procedure: as §2, §3

[12] = tested on: alkaline phosphatase (Shrimp); assay: Alkaline phosphatase inhibition, Shrimp isoform; format: biochemical; conditions: shrimp isoform; 100 μM human serum albumin vs none
Procedure: as §2, §3

[13] = target: albumin (Homo sapiens, UniProt P02768); conditions: known ligand; read-out: IC50 as ligand for albumin; cited from earlier work
albumin, sequence (P02768 25-609): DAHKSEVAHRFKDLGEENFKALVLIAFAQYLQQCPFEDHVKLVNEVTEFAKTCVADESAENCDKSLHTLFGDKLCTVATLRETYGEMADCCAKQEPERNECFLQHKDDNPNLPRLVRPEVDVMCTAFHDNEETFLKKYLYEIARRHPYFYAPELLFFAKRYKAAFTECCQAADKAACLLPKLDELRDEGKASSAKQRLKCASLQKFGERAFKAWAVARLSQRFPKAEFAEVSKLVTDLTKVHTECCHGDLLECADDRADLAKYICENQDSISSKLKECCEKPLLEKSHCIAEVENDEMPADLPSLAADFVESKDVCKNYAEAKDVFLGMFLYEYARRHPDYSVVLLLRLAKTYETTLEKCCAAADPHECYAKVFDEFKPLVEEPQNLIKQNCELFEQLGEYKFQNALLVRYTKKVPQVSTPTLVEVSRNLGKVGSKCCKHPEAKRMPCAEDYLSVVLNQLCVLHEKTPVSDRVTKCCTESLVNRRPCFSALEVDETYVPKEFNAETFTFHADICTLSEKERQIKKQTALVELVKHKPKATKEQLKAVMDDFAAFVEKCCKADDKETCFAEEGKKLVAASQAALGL

[14] = 100 μM human serum albumin, pH 10, read-out: IC50 (100 μM albumin)
[15] = no albumin, pH 10, read-out: IC50 (no albumin)

CC(C)(S)[C@@H](N)C(=O)O [Penicillamine]
IC 50 values for a wide variety of alkaline phosphatase isoforms [1]: in the μM range

C=CC[C@@H]1/C=C(\C)C[C@H](C)C[C@H](OC)[C@H]2O[C@@](O)(C(=O)C(=O)N3CCCC[C@H]3C(=O)O[C@H](/C(C)=C/[C@@H]3CC[C@@H](O)[C@H](OC)C3)[C@H](C)[C@@H](O)CC1=O)[C@H](C)C[C@@H]2OC [FK506, reference compound]
Effect of added FK506 on the FKBP52 effect ([2]; FKpYEEI 1.0 M plus FKBP52 2.0 M plus FK506 0.25-15.0 M): the affinity enhancing effect of FKBP52 is reversed
Effect of added FK506 on the FKBP12 effect ([2]; SLFpYEEI 1.0 M plus FKBP12 2.0 M plus FK506 1.0-3.0 M): reverses the effect of reduced affinity
Effect of added FK506 on the FKBP12 effect [3]: the affinity reduction is reversed

CC(C)(S)C(N)C(=O)NCC(=O)Nc1ccc(C(=O)O)c(O)c1 (stereo not drawn) [Compound 1]
Decrease of IC50 in the presence of albumin [4]: roughly 12 fold
pIC50 [5]: 4.30
pIC50 ([5]; read-out: IC50 (100 μM albumin), Bacteria, 100 μM human serum albumin, pH 10): 4.30
pIC50 ([6]; read-out: IC50 (100 μM albumin), 100 μM human serum albumin, pH 10): 4.70
pIC50 ([6]; read-out: IC50 (no albumin), no albumin, pH 10): 4.70
pIC50 [7, 14]: 4.30
pIC50 [7, 15]: 4.30
Decrease of IC50 in the presence of albumin [8]: roughly 2 fold
pIC50 [9, 14]: 4.30
pIC50 [9, 15]: 4.30
pIC50 ([10]; 100 μM human serum albumin, read-out: IC50 (100 μM albumin)): 4.35
pIC50 ([10]; no albumin, read-out: IC50 (no albumin)): 3.52
Decrease of IC50 in the presence of albumin ([10]; human placenta isoform, 100 μM human serum albumin vs none): roughly 2 fold
pIC50 ([11]; IC50 (100 μM albumin), 100 μM human serum albumin): 4.10
pIC50 ([11]; IC50 (no albumin), no albumin): 2.52
Decrease of IC50 in the presence of albumin [12]: roughly 12 fold

Nc1ccc(C(=O)O)c(O)c1 [para-amino salicylic acid]
pIC50 [13]: 5.30
